Source: patent US20140309295A1, “ANTIEPILEPTIC, HYPOCHOLESTEROLEMIC AND NEUROPROTECTIVE COMPOUND” (NEURON BIOPHARMA, S.A., priority 2009, published 2014)
Peptide text beside a SMILES is read from it. * marks the point of attachment. Cbz = O=C(OCc1ccccc1)*; CH2F = FC*

Experiments:
zebrafish embryo = assay: Biosafety in zebrafish embryo (OECD C15, semi-static, 9 days); type: in vivo, Danio rerio
Procedure: The fertilized eggs were obtained by natural mating of the zebrafish (Danio rerio, AB strain). A total of 8-10 pairs were used for each cross and a total of 200-250 eggs were generated on average per pair.
To assure exposure in the earliest stages of development, the eggs were quickly transferred (a minimum of 50 per condition) to another Petri dish with solutions of the compounds to be tested. […] Each experiment was performed in triplicate.
The studies were conducted in a total of 9 days post-fertilization, in which the treatment was renewed every day, thus conducting a semi-static assay.
The results at the end of the experiment allowed collecting the percentage of healthy larvae which reach the end of the experiment, defined as the number of live larvae and without symptoms of external physiopathological anomalies (morphological and/or behavioral), this being a parameter determining the biosafety of a substance under study and is complementary to the survival rates and to the LD50.
The anomalies recorded in the study are described below: • Intracranial thrombosis: a clot inside the blood vessel, in this case of any cerebral vessel. • Cardiac thrombosis: occurs in a cardiac vessel. • Cardiac edema (or hydrops): accumulation of fluid in the intercellular tissue space and also in the cavities of the organism. In the case of the heart, it causes the accumulation of fluid in the pericardial sac. • Malformation: a noticeable difference in the shape of the body or part of the body, or organ of the body (internal or external) compared with the average shape of the part in question.
The cardiac rhythm of the zebrafish embryos-larva was determined by means of visual analysis in stereomicroscopy, determining the heartbeat with the aid of a manual counter for a period of one minute.

zebrafish larvae = assay: Acute toxicity assay in zebrafish larvae (24 hours); type: in vivo, Danio rerio; conditions: for Mortality (dead larvae/total): 1 day
Procedure: To evaluate the biosafety of compound NST0037, its toxicological effects on the zebrafish larvae model were analyzed by means of determining the safety parameters of the OECD C15 protocol.
The fertilized eggs were obtained by natural mating of the zebrafish (Danio rerio, AB strain). A total of 8-10 pairs were used for each cross and a total of 200-250 eggs were generated on average per pair. The eggs were collected immediately after spawning and were washed with dilution water (CaCl2.2H2O2 0.29 g/L, MgSO4.7H2O2 0.12 g/L, NaHCO3 0.065 g/L, KCl 0.006 g/L), the pH being adjusted to 7.8±0.2, in accordance with EC Regulation 440/2008, method C.1, and were deposited in a Petri dish.
The embryos were developed normally until 96 hours post-fertilization in their growth medium. […] […]. Each experiment was performed in triplicate.
The studies were conducted for 24 hours of treatment, thus performing an acute toxicity assay. […].
After the time of exposure of the substances under study, the record of the mortality of the larvae was determined. […].
[…]. The percentage of healthy larvae was defined as the number of live larvae without symptoms of external physiopathological anomalies (morphological and/or behavioral), the latter being a parameter determining the biosafety of a substance under study and is complementary to the survival rates and to LD50. […].
The anomalies recorded in the study are described below: • Thrombosis in the yolk sac: it is a clot inside a blood vessel, in this case of any vessel irrigating the yolk. • Cardiac thrombosis: occurs in a cardiac vessel. • Cardiac edema (or hydrops): accumulation of fluid in the intercellular tissue space and also in the cavities of the organism. In the case of the heart, it causes the accumulation of fluid in the pericardial sac.

adult zebrafish = assay: Lethality by constant exposure in water (4 days) in adult zebrafish (OECD 203); type: in vivo; conditions: for histopathology: ovary / Mortality (dead animals/total): 4 days
Procedure: The object of this assay is to determine the acute lethal toxicity of a substance on freshwater fish. Acute toxicity is the distinguishable adverse effect induced in an organism as a result of the exposure to a given substance for a short time period (days).
The deaths of the animals under study during the entire time of the assay were recorded as a toxicity parameter.
To that end, the fish that survived the treatment were sacrificed at 4 days post-treatment (previously anesthetized) and the samples (whole fish) were included in paraffin. The hematoxylin-eosin staining was subsequently performed in order to conduct the histopathological studies, obtaining a minimum of 6 longitudinal sections per animal, for the purpose of collecting different study areas of the same organ. The following organs were studied: brain, kidney, pancreas, intestine, eye, gills, ovary, testicle, muscle and liver.

caspase 3/7 = assay: Inhibition of camptothecin-induced activation of caspase 3/7 in SK-N-MC cells; type: cell-based, human; conditions: 50 μM Z-VAD-fmk; 50 μM CPT
Procedure: The assay was performed on human neuroblastoma SK-N-MC cells in culture from the American Type Culture Collection (ATCC), in all cases strict rules of sterility were followed and the manipulation was performed in class II biological safety cabinets following European standard EN 12469. The cells were maintained in the following culture medium: Minimum Essential Medium Eagle (MEM) supplemented with 1 mM sodium pyruvate, 2 mM L-glutamine, 0.1 mM non-essential amino acids, 0.05 mg/ml gentamicin and 10% fetal bovine serum. The induction of apoptosis on the cells in culture was performed by means of incubation with camptothecin (CPT), which triggers cell apoptosis activation. The apoptosis was determined by means of the measurement of the activation of effector caspases, caspase 3 or caspase 7, for which a kit for the fluorometric detection of active caspase 3/7 (Apo-ONE® Homogeneous Caspase-3/7, Promega) was used. The active caspase 3 or 7 of the cells cause the rupture of a substrate, which leads to fluorescence emission, which is read by means of a fluorometer. The effect of the pretreatment of compound NST0037 at 10 and 40 μM on the activation of caspase 3/7 caused by 50 μM of camptothecin (CPT) in the SK-N-MC cells was thus analyzed. These cells, not exceeding 15 passages, were seeded on 96-well plates treated for adherent cells with a cell concentration of 5×10^4 cells/well, 3 wells of the plate were seeded for each condition of the assay. After 24 hours of cell incubation at 37° C. and 5% CO2, the pretreatment with NST0037 at 10 and 40 μM was performed. […] On the following day, fluorescence was measured (499/521 nm, […]).

[1] = tested on: human neuroblastoma SK-N-MC cells; assay: Inhibition of camptothecin-induced apoptosis by flow cytometry (sub-G1); type: cell-based; conditions: 50 μM Z-VAD-fmk; 50 μM camptothecin
Procedure: The assay was performed on human neuroblastoma SK-N-MC cells in culture from the American Type Culture Collection (ATCC), in all cases strict rules of sterility were followed and the manipulation was performed in class II biological safety cabinets following European standard EN 12469. The cells were maintained in the following culture medium: Minimum Essential Medium Eagle (MEM) supplemented with 1 mM sodium pyruvate, 2 mM L-glutamine, 0.1 mM non-essential amino acids, 0.05 mg/ml gentamicin and 10% fetal bovine serum.
The inhibition caused by compound NST0037 against apoptosis (programmed cell death) caused by treatment with camptothecin which inhibits the enzyme Topoisomerase I, which prevents DNA duplication and triggers apoptotic cell death, was analyzed. These cells, not exceeding 15 passages, were seeded on 6-well plates treated for adherent cells with a cell concentration of 8×10^5 cells/well and 7×10^5 cells/well for the assay with pretreatment; 2 wells of the plate were seeded for each condition of the assay.
After 24 hours of cell incubation at 37° C. and 5% CO2, the cell treatments were performed with 2 ml of total volume for the following conditions: • Control: culture medium (medium) • Camptothecin: medium plus camptothecin 50 μM. • Camptothecin plus Z-VAD-fmk: medium plus 50 μM camptothecin plus 50 μM Z-VAD-fmk, as positive inhibition control. • Camptothecin plus NST0037: medium plus 50 μM camptothecin plus NST0037 at 10, 40 or 100 μM.
In the assay with pretreatment, the cells were previously treated with 40 μM of NST0037, 100 μM of mevalonate or both together for 24 hours and then they were treated with 50 μM camptothecin, the rest of the procedure was similar to the assay without pretreatment.
The cells were incubated (at 37° C. and 5% CO2) with these treatments for 6 hours, after which time they were collected along with their culture medium and centrifuged at 300×g for 5 minutes. The medium was removed, a washing was performed with PBS and the cells were fixed for 2 minutes with 500 μl of 70% ethanol at −20° C. Once fixed, they were centrifuged at 400×g for 5 minutes, washed with PBS and 0.05 mg/ml propidium iodide, diluted in cycling buffer (0.1% sodium citrate, 0.3% Nonidet P-40 and 0.02 mg/ml RNase) were added and they were incubated for 1 hour at 37° C. After this time they were analyzed by flow cytometry, comparing the fluorescence of propidium iodide against the amount of DNA. The percentage of apoptosis was measured on the sub-G1 region of each of the conditions.

CCC(C)(C)C(=O)O[C@H]1C[C@@H](C)C=C2C=C[C@H](C)[C@H](CC[C@@H]3C[C@@H](O)CC(=O)O3)[C@H]21 [simvastatin, reference compound]
percentage of larvae with malformations or anomalous appearance (zebrafish embryo; 0.2 mg/L): significant percentage of anomalies or toxicological problems | survival rate of embryos-larvae (zebrafish embryo; high dose (2 mg/L, FIG. 24)): more toxic, since the reduction of the survival rate started earlier in time | reduction of the cardiac rhythm vs controls (zebrafish embryo; increasing doses up to 2 mg/L, 72 hours post-treatment): statistically significant reduction with respect to the controls after the dose of 0.06 | survival rate of embryos-larvae vs controls (zebrafish embryo; lower dose (FIG. 25: NST0037 0.2 mg/L)): caused a significant reduction of the survival rate | percentage of larvae with toxicological symptomatology (anomalous appearance) (zebrafish larvae; 24 hours exposure): induced a larger percentage of larvae with toxicological symptomatology than compound NST0037 | Mortality (dead larvae/total) (zebrafish larvae; Dose 10 mg/Kg): 0/30 | Mortality (dead larvae/total) (zebrafish larvae; Dose 30 mg/Kg): 0/30 | Mortality (dead larvae/total) (zebrafish larvae; Dose 100 mg/Kg): 0/30 | Mortality (dead larvae/total) (zebrafish larvae; Dose 300 mg/Kg): 0/30 | Mortality (dead larvae/total) (zebrafish larvae; Dose 1000 mg/Kg): 0/30 | percentage of healthy larvae (zebrafish larvae; highest study dose (1000 mg/Kg), 24 hours): 53.3±8.8% | histopathology: ovary (adult zebrafish; 30 mg/kg): also presented histopathological damage in the ovary | histopathology: ovary (adult zebrafish; 100 mg/Kg): presented ovarian damage | Mortality (dead animals/total) (adult zebrafish; Dose 1 mg/kg): 0/7 | Mortality (dead animals/total) (adult zebrafish; Dose 3.2 mg/kg): 0/7 | Mortality (dead animals/total) (adult zebrafish; Dose 10 mg/kg): 0/7 | Mortality (dead animals/total) (adult zebrafish; Dose 32 mg/kg): 0/7 | Mortality (dead animals/total) (adult zebrafish; Dose 100 mg/kg): 6/7 | percentage of mortality (adult zebrafish; day 4 post-treatment (100 mg/kg group)): 86%

COC(=O)C[C@H](NC(=O)[C@H](C)NC(=O)[C@@H](NC(=O)OCc1ccccc1)C(C)C)C(=O)CF [Z-VAD-fmk, reference compound] (Cbz-Val-Ala-Asp(OMe)-CH2F)
inhibition of activation of caspase 3/7 (inhibition control) (caspase 3/7): completely inhibited the activation of caspase 3/7 | inhibition of apoptosis caused by camptothecin (positive inhibition control) [1]: specifically inhibited the apoptosis caused by camptothecin
